# Experiments:
# Type in all cases: biochemical
# KDR = KDR (Homo sapiens, UniProt P35968); test: KDR HTRF in vitro kinase assay; design: purified enzyme (His6-KDR 789-1354, MW 63 kD); His6 (N); conditions: 1 mM ATP; read-out: KDR enzyme inhibition data (Ki)
# Method: To determine the activity of the various kinases, a homogenous time-resolved fluorescence (HTRF) in vitro kinase assay was used. (Mathis, G., HTRF® Technology. J Biomol Screen, 1999. 4(6): p. 309-314; Alfred J. Kolb, Paul V. Kaplita, David J. Hayes, Young-Whan Park, Christine Pernell, John S. Major and Gerard Mathis, Drug Discovery Today, 1998, 3, 333-342.)
# For example for KDR, 7 ng/well of purified enzyme (His6-KDR 789-1354, MW 63 kD) was mixed with 0.5 μM N-biotinylated substrate (Biotin-Ahx-AEEEYFFLA-amide (SEQ. ID. 1)), various concentrations of inhibitor in reaction buffer (50 mM HEPES, pH 7.1, 10 mM MgCl2, 2 mM MnCl2, 0.1% BSA and 1 mM DTT, 40 L final volume), ATP (1 mM final conc.) in a black 384-well plate. After 60 minutes incubation at room temperature, the reaction was quenched by addition of a buffered EDTA solution (final approximate concentrations: 30 mM EDTA, 0.1% BSA, 0.1% Triton X-100 and 0.24M KF) and a solution of revelation agents (to give 0.084 ng/well streptavidin-XL-665 (Cis-Bio) and 6.5 ng/well antiphsophotyrosine mAb PT66-K Europium kryptate) was added to the reaction mixture. The quenched reaction was allowed to stand at room temperature for 3 hours and was then read in a time-resolved fluorescence detector (InVision, Perkin-Elmer) at 620 nm and 665 nm sequentially with excitation. The ratio between the signal of 620 nm and 665 nm was used in the calculation of the IC50.
# Aurora A = biological target: T1, Aurora A (Homo sapiens, UniProt O14965); test: Aurora A enzyme inhibition (time-resolved fluorescence, STK substrate-2); conditions: 1 mM ATP
# T1 sequence (O14965 1-403): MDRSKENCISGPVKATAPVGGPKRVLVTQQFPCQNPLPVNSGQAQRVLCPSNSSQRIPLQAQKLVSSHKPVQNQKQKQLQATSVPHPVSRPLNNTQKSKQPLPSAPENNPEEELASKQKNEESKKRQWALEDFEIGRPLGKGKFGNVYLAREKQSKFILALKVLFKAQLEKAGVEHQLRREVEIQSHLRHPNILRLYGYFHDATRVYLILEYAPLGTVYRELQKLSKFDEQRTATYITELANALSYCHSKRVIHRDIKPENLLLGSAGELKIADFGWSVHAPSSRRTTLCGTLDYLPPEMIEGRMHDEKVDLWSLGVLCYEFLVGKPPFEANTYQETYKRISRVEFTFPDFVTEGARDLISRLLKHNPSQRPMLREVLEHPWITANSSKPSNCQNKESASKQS
# Method: To determine Aurora A and C activity of representative compounds of the invention, Active Aurora A or C enzyme was incubated in wells of a 384 well plate with biotinylated STK substrate-2 (Upstate), 1 mM ATP, and various concentrations of inhibitors in a Hepes buffer, pH 7.4 containing MgCl2, sodium othrovanadate, and Triton X-100. After 1 hour, the reaction was stopped with EDTA and anti-phospho-STK antibody Europium Cryptate (Upstate) and SA-XL665 (Upstate) were added to detect the phosphopeptide. The amount of phosphorylation was determined by the time-resolved fluorescence ratio of signals at 665 nm and 615 nm. The IC50s were calculated by an exponential fit of the inhibition values with the inhibitor concentrations using Assay Explorer software.
# Aurora B = biological target: T2, Aurora B (Homo sapiens, UniProt Q96GD4); test: Aurora B enzyme inhibition (time-resolved fluorescence, histone H3 peptide); conditions: 1 mM ATP
# T2 construct: Active Aurora B enzyme (recombinant residues 1-344)
# T2 sequence (Q96GD4 whole entry, the tested form may be a part): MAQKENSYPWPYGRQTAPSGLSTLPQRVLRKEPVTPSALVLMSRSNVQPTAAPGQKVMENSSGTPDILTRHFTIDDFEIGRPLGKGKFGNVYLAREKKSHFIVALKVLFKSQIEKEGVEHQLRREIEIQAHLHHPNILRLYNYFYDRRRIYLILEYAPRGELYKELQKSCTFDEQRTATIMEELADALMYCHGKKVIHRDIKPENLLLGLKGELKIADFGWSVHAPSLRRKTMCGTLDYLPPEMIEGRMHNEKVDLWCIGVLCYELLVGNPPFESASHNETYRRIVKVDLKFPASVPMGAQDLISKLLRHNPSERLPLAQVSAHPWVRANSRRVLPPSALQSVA
# T2 sequence (Q9NQS7 826-918 partner limits assumed): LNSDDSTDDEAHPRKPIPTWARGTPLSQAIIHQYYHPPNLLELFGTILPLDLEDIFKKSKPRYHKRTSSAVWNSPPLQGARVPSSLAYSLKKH
# Method: To determine Aurora B activity of representative compounds of the invention, Active Aurora B enzyme (recombinant residues 1-344) and INCENP (recombinant GST fusion protein (Upstate)) were incubated in wells of a 384 well plate with biotinylated histone H3 peptide residues 1-21 (Upstate), 1 mM ATP, and various concentrations of inhibitors in a HEPES buffer, pH 7.4 containing MgCl2, sodium othrovanadate, and Triton X-100. After 1 hour, the reaction was stopped with EDTA and anti-phospho-histone H3 Europium Cryptate (Cis-Bio) and SA-APC (Phycolink, Prozyme) were added to detect the phosphopeptide. The amount of phosphorylation was determined by the time-resolved fluorescence ratio of signals at 665 nm and 615 nm. The IC50's were calculated by an exponential fit of the inhibition values with the inhibitor concentrations using Assay Explorer software.
# Chain of KDR (P35968 789-1354): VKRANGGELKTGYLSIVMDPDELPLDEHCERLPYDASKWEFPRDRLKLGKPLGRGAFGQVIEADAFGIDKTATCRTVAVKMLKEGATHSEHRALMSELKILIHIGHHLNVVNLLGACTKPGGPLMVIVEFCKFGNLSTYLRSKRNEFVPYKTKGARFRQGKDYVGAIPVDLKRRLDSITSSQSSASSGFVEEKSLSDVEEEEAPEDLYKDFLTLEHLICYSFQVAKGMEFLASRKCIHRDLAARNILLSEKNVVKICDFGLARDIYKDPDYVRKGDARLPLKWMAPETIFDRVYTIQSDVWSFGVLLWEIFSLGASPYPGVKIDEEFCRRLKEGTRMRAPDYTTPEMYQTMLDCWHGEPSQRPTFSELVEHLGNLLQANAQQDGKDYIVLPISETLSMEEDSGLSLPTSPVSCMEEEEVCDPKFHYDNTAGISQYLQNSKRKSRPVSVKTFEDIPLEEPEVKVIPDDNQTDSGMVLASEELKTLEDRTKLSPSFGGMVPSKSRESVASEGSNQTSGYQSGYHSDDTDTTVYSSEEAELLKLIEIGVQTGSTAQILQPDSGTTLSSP
Ki (KDR) [nM],Ki (Aurora A) [nM],Ki (Aurora B) [nM],SMILES
< 100,< 100,< 100,"NC(=O)[C@@H]1[C@H](Nc2nc(Nc3cnn(CCN4CCCC4)c3)ncc2F)[C@H]2C=C[C@@H]1C2.NC(=O)[C@H]1[C@@H](Nc2nc(Nc3cnn(CCN4CCCC4)c3)ncc2F)[C@@H]2C=C[C@H]1C2 (mixture of isomers) [Example 45, (1S,2S,3R,4R)-3-[(5-fluoro-2-{[1-(2-pyrrolidin-1-ylethyl)-1H-pyrazol-4-yl]amino}pyrimidin-4-yl)amino]bicyclo[2.2.1]hept-5-ene-2-carboxamide and (1R,2R,3S,4S)-3-[(5-fluoro-2-{[1-(2-pyrrolidin-1-ylethyl)-1H-pyrazol-4-yl]amino}pyrimidin-4-yl)amino]bicyclo[2.2.1]hept-5-ene-2-carboxamide]"
< 100,< 100,< 100,"CNC(=O)[C@@H]1[C@H](Nc2nc(Nc3cnn(C)c3)ncc2C(F)(F)F)[C@H]2C=C[C@@H]1C2.CNC(=O)[C@H]1[C@@H](Nc2nc(Nc3cnn(C)c3)ncc2C(F)(F)F)[C@@H]2C=C[C@H]1C2 (mixture of isomers) [Example 47, (1S,2S,3R,4R)—N-methyl-3-{[2-[(1-methyl-1H-pyrazol-4-yl)amino]-5-(trifluoromethyl)pyrimidin-4-yl]amino}bicyclo[2.2.1]hept-5-ene-2-carboxamide and (1R,2R,3S,4S)—N-methyl-3-{[2-[(1-methyl-1H-pyrazol-4-yl)amino]-5-(trifluoromethyl)pyrimidin-4-yl]amino}bicyclo[2.2.1]hept-5-ene-2-carboxamide]"
< 100,< 100,< 100,"CNC(=O)[C@@H]1[C@H](Nc2nc(Nc3cnn(C)c3)ncc2Br)[C@H]2C=C[C@@H]1C2.CNC(=O)[C@H]1[C@@H](Nc2nc(Nc3cnn(C)c3)ncc2Br)[C@@H]2C=C[C@H]1C2 (mixture of isomers) [Example 48, (1S,2S,3R,4R)-3-({5-bromo-2-[(1-methyl-1H-pyrazol-4-yl)amino]pyrimidin-4-yl}amino)-N-methylbicyclo[2.2.1]hept-5-ene-2-carboxamide and (1R,2R,3S,4S)-3-({5-bromo-2-[(1-methyl-1H-pyrazol-4-yl)amino]pyrimidin-4-yl}amino)-N-methylbicyclo[2.2.1]hept-5-ene-2-carboxamide]"
< 100,< 100,< 100,"CCn1cc(Nc2ncc(Br)c(N[C@@H]3[C@H](C(=O)NC)[C@H]4C=C[C@@H]3C4)n2)cn1.CCn1cc(Nc2ncc(Br)c(N[C@H]3[C@@H](C(=O)NC)[C@@H]4C=C[C@H]3C4)n2)cn1 (mixture of isomers) [Example 49, (1S,2S,3R,4R)-3-({5-bromo-2-[(1-ethyl-1H-pyrazol-4-yl)amino]pyrimidin-4-yl}amino)-N-methylbicyclo[2.2.1]hept-5-ene-2-carboxamide and (1R,2R,3S,4S)-3-({5-bromo-2-[(1-ethyl-1H-pyrazol-4-yl)amino]pyrimidin-4-yl}amino)-N-methylbicyclo[2.2.1]hept-5-ene-2-carboxamide]"
< 100,< 100,< 100,"CCn1cc(Nc2ncc(Cl)c(N[C@@H]3[C@H](C(=O)NC)[C@H]4C=C[C@@H]3C4)n2)cn1.CCn1cc(Nc2ncc(Cl)c(N[C@H]3[C@@H](C(=O)NC)[C@@H]4C=C[C@H]3C4)n2)cn1 (mixture of isomers) [Example 51, (1S,2S,3R,4R)-3-({5-chloro-2-[(1-ethyl-1H-pyrazol-4-yl)amino]pyrimidin-4-yl}amino)-N-methylbicyclo[2.2.1]hept-5-ene-2-carboxamide and (1R,2R,3S,4S)-3-({5-chloro-2-[(1-ethyl-1H-pyrazol-4-yl)amino]pyrimidin-4-yl}amino)-N-methylbicyclo[2.2.1]hept-5-ene-2-carboxamide]"
< 100,< 100,< 100,"COc1cnc(Nc2cnn(C)c2)nc1NC1C2C=CC(C2)C1C(N)=O (mixture of isomers) [Example 52, (1S,2S,3R,4R)-3-({5-methoxy-2-[(1-methyl-1H-pyrazol-4-yl)amino]pyrimidin-4-yl}amino)bicyclo[2.2.1]hept-5-ene-2-carboxamide and (1R,2R,3S,4S)-3-({5-methoxy-2-[(1-methyl-1H-pyrazol-4-yl)amino]pyrimidin-4-yl}amino)bicyclo[2.2.1]hept-5-ene-2-carboxamide]"
< 100,< 100,< 100,"CCn1cc(Nc2ncc(OC)c(NC3C4C=CC(C4)C3C(N)=O)n2)cn1 (mixture of isomers) [Example 53, (1S,2S,3R,4R)-3-({2-[(1-ethyl-1H-pyrazol-4-yl)amino]-5-methoxypyrimidin-4-yl}amino)bicyclo[2.2.1]hept-5-ene-2-carboxamide and (1R,2R,3S,4S)-3-({2-[(1-ethyl-1H-pyrazol-4-yl)amino]-5-methoxypyrimidin-4-yl}amino)bicyclo[2.2.1]hept-5-ene-2-carboxamide]"
< 100,< 100,< 100,"CN(C)C(=O)Cn1cc(Nc2ncc(Cl)c(N[C@@H]3[C@H](C(N)=O)[C@H]4C=C[C@@H]3C4)n2)cn1.CN(C)C(=O)Cn1cc(Nc2ncc(Cl)c(N[C@H]3[C@@H](C(N)=O)[C@@H]4C=C[C@H]3C4)n2)cn1 (mixture of isomers) [Example 54, (1S,2S,3R,4R)-3-{[5-chloro-2-({1-[2-(dimethylamino)-2-oxoethyl]-1H-pyrazol-4-yl}amino)pyrimidin-4-yl]amino}bicyclo[2.2.1]hept-5-ene-2-carboxamide and (1R,2R,3S,4S)-3-{[5-chloro-2-({1-[2-(dimethylamino)-2-oxoethyl]-1H-pyrazol-4-yl}amino)pyrimidin-4-yl]amino}bicyclo[2.2.1]hept-5-ene-2-carboxamide]"
< 100,< 100,< 100,"CC(C)OC(=O)Cn1cc(Nc2ncc(Br)c(N[C@@H]3[C@H](C(N)=O)[C@H]4C=C[C@@H]3C4)n2)cn1.CC(C)OC(=O)Cn1cc(Nc2ncc(Br)c(N[C@H]3[C@@H](C(N)=O)[C@@H]4C=C[C@H]3C4)n2)cn1 (mixture of isomers) [Example 55, isopropyl{4-[(4-{[(1S,2S,3R,4R)-3-(aminocarbonyl)bicyclo[2.2.1]hept-5-ene-2-yl]amino}-5-bromopyrimidin-2-yl)amino]-1H-pyrazol-1-yl}acetate and isopropyl{4-[(4-{[(1R,2R,3S,4S)-3-(aminocarbonyl)bicyclo[2.2.1]hept-5-ene-2-yl]amino}-5-bromopyrimidin-2-yl)amino]-1H-pyrazol-1-yl}acetate]"
< 100,< 100,< 100,"Cn1cc(Nc2ncc(Cl)c(N[C@@H]3[C@H]4CC[C@H](C4)[C@@H]3C(N)=O)n2)cn1.Cn1cc(Nc2ncc(Cl)c(N[C@H]3[C@@H]4CC[C@@H](C4)[C@H]3C(N)=O)n2)cn1 (mixture of isomers) [Example 56, (1R,2S,3R,4S)-3-({5-chloro-2-[(1-methyl-1H-pyrazol-4-yl)amino]pyrimidin-4-yl}amino)bicyclo[2.2.1]heptane-2-carboxamide and (1S,2R,3S,4R)-3-({5-chloro-2-[(1-methyl-1H-pyrazol-4-yl)amino]pyrimidin-4-yl}amino)bicyclo[2.2.1]heptane-2-carboxamide]"
